Experimental data published in publication PMC12586598, “A novel long-acting C5a-blocking cyclic peptide prevents sepsis-induced organ dysfunction via effective blockade of the inflammatory cascade” (Signal Transduction and Targeted Therapy, 2025).
Where a SMILES comes first, the peptide text is derived from it.

Assays:
CLP-induced septic mice = test: Inflammatory factors and chemokines in plasma, Luminex, CLP mice; format: in vivo, mouse
Experimental: Twenty-four hours later, whole blood and PLF were collected under anesthesia. The plasma and PLF supernatants were further isolated via centrifugation (3000 × g, 10 min, 4 °C) and subjected to inflammatory factor and chemokine profiling via the Luminex® multiplex […] Biotechnologies, Shanghai, China). The percent inhibition was calculated relative to that of the sham group (set as 0%).

[1] = mouse, 24 h
From the text: The peptides in the plasma were extracted with 15% TFA and quantified via reversed-phase high-performance liquid chromatography (HPLC) (Agilent 1260, USA).

[2] = 100 μg/20 g, 24 h after CLP surgery

## CSCC[C@@H]1NC(=O)[C@@H]2CCCN2C(=O)[C@H](CCSC)NC(=O)[C@H](CO)NC(=O)[C@H](Cc2c[nH]cn2)NC(=O)CNC(=O)[C@H](CO)NC(=O)[C@H](Cc2ccccc2)NC(=O)[C@H](CCCNC(=N)N)NC(=O)[C@H](CCC(=O)O)NC(=O)[C@H](Cc2ccccc2)NC(=O)[C@H](C(C)C)NC1=O [Cp1] (cyclo(HSMPMVFERFSG))
CLP-induced septic mice; [2]
  decrease in plasma CCL2 level: 21.7 fold
  decrease in plasma CCL3 level: 81.9 fold
  decrease in plasma CCL4 level: 24.8 fold
  decrease in plasma CCL5 level: 18.6 fold
  decrease in plasma CCL7 level: 102.3 fold
  decrease in plasma CXCL1 level: 61.7 fold
  decrease in plasma CXCL5 level: 4.3 fold
  decrease in plasma IL-1β level vs CLP group: 94%
  decrease in plasma IL-6 level vs CLP group: 99%
  decrease in plasma TNF-α level vs CLP group: 86%
CLP-induced septic mice; 100 μg/20 g, Luminex (Fig. 4a)
  reduction in plasma IL-1β level: 18.6 fold
CLP-induced septic mice; 300 μg of Cp1
  expression of inflammatory factors and chemokines in plasma, high dose: effectively suppressed
CLP-induced septic mice; 24 h after CLP surgery
  plasma IL-17A, IFN-γ, GM-CSF, and CX3CL1 levels: significantly decreased
CLP-induced septic mice; preliminary titrations
  lowest effective dose with significant pharmacological activity: 100 μg
[1]
  stability in normal plasma: comparable stabilities
